Experimental data as given in patent US20080142759A1, “Pyridine N-Oxide Based Azo Dyes And Their Metal Complexes For Use In Optical Layers For Optical Data Recording” (priority 2004, published 2008).

Assay: Thermal decomposition by DSC
Format: physicochemical
Source text: Sharp threshold of thermal decomposition within the required temperature range characterizes the new pyridine N-oxide based azo dyes which are assumed to be desirable for the application in optical layers for optical data recording.

DSC: dec. at (DSC): 260 °C
Dec.Pt (Table 1 summary): 260 °C
SMILES: CCN1C(O)=C(/N=N/c2c(O)ccc[n+]2[O-])C=CC1=C(C#N)C#N [(12)]
